System: blood sugar
Assay: Test Example 1: average fall of the blood sugar in rabbits after insulin
Assay type: in vivo, New Zealand rabbits
Conditions: subcutaneous 2 IU/rabbit, level at 0 min = 100%
Procedure: The composition contained insulin at […] (5 insulin units (IU)/rabbit).
The composition was nasally administered to six male New Zealand rabbits at one time, and the average fall of the blood sugar was measured at 0, 15, 30, 60, 120 and 180 min after administration.
For comparison, 2 IU/rabbit of insulin was subcutaneously injected to six male New Zealand rabbits and the average fall of the blood sugar was measured at 0, 60, 120, 240, and 360 min after administration.
The results are shown in Table 1, in which the average fall of the blood sugar is indicated in percentage assuming the blood sugar level at 0 min to be 100%.

insulin [Control]
Blood sugar level (% of 0-min level) (0 min after administration): 100% | Blood sugar level (% of 0-min level) (60 min after administration): 57% | Blood sugar level (% of 0-min level) (120 min after administration): 56% | Blood sugar level (% of 0-min level) (240 min after administration): 84% | Blood sugar level (% of 0-min level) (360 min after administration): 94%

Source: US5908824A, “Nasally administrable compositions containing physiologically active peptides” (Dott Research Laboratory, priority 1995, dated 1999)
